Test results reported in US20230330254A1 (Regeneron Pharmaceuticals, Inc., priority 2022, published 2023).
pEC50: −log10 of the molar value. Read-outs that look alike come from different tables or passages of the source. Where a SMILES comes first, the peptide text is derived from it. [ ]: non-standard residue; d: D form. The star is where a group is joined. Bip(2'-Et,4'-O(CH2)4NH2) = CCc1cc(OCCCCN)ccc1-c1ccc(C[C@H](N)C(=O)O)cc1; Nva(5-(3,5-Me2Ph)) = Cc1cc(C)cc(CCC[C@H](N)C(=O)O)c1; Ala(1H-tetrazol-5-yl) = N[C@@H](Cc1nnn[nH]1)C(=O)O; αMePhe(2-F) = C[C@](N)(Cc1ccccc1F)C(=O)O; Desaminohistidyl = O=C(CCc1c[nH]cn1)*; X3 = CC(C)(C(=O)*)c1ccn[nH]1; X1 = O=C(CCCCCc1cnc[nH]1)*; X4 = CC(C)(C(=O)O)C(=O)*

Legend:
[1] = Plasma stability of payloads and linker-payloads, human plasma; format: in vitro ADME; conditions: plasma, 2 μM, 37° C., read-out: Human plasma stability assay T½ (converted)
Procedure: The plasma stability of payloads and linker payloads of the disclosure were measured. For the assay, pooled frozen plasma (human, mouse or monkey) was thawed in cold water or a 37° C. water bath prior to experiment. Plasma was centrifuged at 4000 rpm for 5 min if any clots were observed, they were subsequently removed. If required, the pH was adjusted to 7.4±0.1. For the preparation of compounds and positive controls, a 1 mM intermediate solution was prepared by diluting 10 μL of their stock solution with 90 μL DMSO; a 1 mM intermediate solution of the positive control (Propantheline) was prepared by diluting 10 μL of its stock solution with 90 μL ultrapure water. […] 98 μL of plasma was spiked with 2 μL of dosing solution (100 μM) to achieve the final concentration of 2 μM in duplicate. Samples were then incubated at 37° C. in a water bath. […] At each time point, 400 μL of stop solution (200 ng/mL tolbutamide plus 200 ng/mL labetalol in 50% ACN/MeOH) was added to precipitate protein and mixed thoroughly. Sample plates were then centrifuged at 4,000 rpm for 10 min. An aliquot of supernatant (50 μL) was transferred from each well and mixed with 100 μL ultrapure water. The samples were then shaken at 800 rpm for approximately 10 min before submitting for LC-MS/MS analysis.

human GLP1R [2] = target: T1, human GLP1R (Homo sapiens, UniProt P43220); assay: Luciferase reporter assay, HEK293/CRE-Luc/hGLP1R (Example 17); format: cell-based; parameters: engineered to express full-length human GLP1R, cynomolgus GLP1R; expressed in transfected cells; host or cells: HEK293/CRE-Luc; conditions: HEK293/CRE-Luc/hGLP1R; for S/N: highest RLU / RLU of untreated wells; for pEC50: payloads and linker-payloads, experiments A-E, M2361 repeated in each, read-out: EC50; for Relative Potency (% M2361 EC50) / Relative Signal:Noise (% M2361): relative to M2361 of the same experiment
T1 sequence (P43220 24-463): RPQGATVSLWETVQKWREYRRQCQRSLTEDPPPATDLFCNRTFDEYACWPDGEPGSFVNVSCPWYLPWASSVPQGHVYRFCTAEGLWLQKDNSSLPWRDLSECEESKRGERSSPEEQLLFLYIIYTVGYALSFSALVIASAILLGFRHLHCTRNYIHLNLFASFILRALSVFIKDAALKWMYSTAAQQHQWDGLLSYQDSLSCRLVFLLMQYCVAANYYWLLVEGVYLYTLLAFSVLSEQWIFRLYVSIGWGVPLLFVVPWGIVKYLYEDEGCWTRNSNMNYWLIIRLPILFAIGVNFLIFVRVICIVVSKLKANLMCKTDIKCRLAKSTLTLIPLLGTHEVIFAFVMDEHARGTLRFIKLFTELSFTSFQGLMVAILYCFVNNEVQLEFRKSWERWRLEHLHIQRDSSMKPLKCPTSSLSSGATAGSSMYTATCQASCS
Method in brief: (§1)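 HEK293 cells carrying a CRE-driven firefly luciferase reporter were exposed to 3-fold serial dilutions of payloads or linker-payloads (12 points, 0.2% DMSO final) for 4–6 h, then luminescence was read. EC50 came from a four-parameter logistic fit; S/N is top RLU over untreated wells, and relative potency and S/N are referenced to M2361.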

HEK293/CRE-Luc cells [3] = assay: Luciferase reporter assay, HEK293/CRE-Luc cells without GLP1R (Example 17); format: cell-based, human; conditions: HEK293/CRE-Luc cells without hGLP1R, payloads and linker-payloads; for pEC50: read-out: EC50
Method in brief: as §1

HEK293/CRE-Luc cells [4] = assay: Luciferase reporter assay, HEK293/CRE-Luc cells without hGLP1R (Example 11); format: cell-based, human; conditions: Table 11; Experiment A; no hGLP1R expression
Description: (§2) To test the activity of GLP1R agonist payloads, GLP1R agonist linker-payloads (LPs), and anti-GLP1R antibody tethered drug conjugates (ATDCs) of the disclosure, a cell-based cAMP responsive luciferase reporter assay was developed. To generate the assay cell line, the firefly luciferase gene was placed under the control of a cAMP response element (CRE) located upstream of a minimal promoter and transfected into HEK293 cells and referred to herein as HEK293/CRE-Luc cells.
(§3) Three-fold serial dilutions of free payloads or LPs were prepared in 100% DMSO, transferred to fresh assay media, and added to the cells at a final constant DMSO concentration of 0.2%. The last well in the plate served as a blank control containing only the assay media and 0.2% DMSO (untreated well) and was plotted as a continuation of the 3-fold serial dilution. Four to six hours later, luciferase activity was determined after the addition of One-Glo™ reagent (Promega, Cat #E6130) to each well. Relative light units (RLUs) were measured on an Envision luminometer (PerkinElmer) and EC50 values were determined using a four-parameter logistic equation over a 12-point dose response curve (GraphPad Prism). The signal to noise (S/N) was determined by taking the ratio of the highest RLU on the dose response curve to the RLU in the untreated wells.

human GLP1R [5] = target: T1, human GLP1R; assay: Human GLP1R cAMP accumulation assay; format: cell-based; parameters: HEK293 cells over-expressing full length human GLP-1R were utilized; expressed in transfected cells; host or cells: HEK293 (HEK293/hGLP1R); conditions: HEK293/hGLP1R cells; Table 4; read-out: cAMP EC50
Method in brief: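 cAMP accumulation measured after 30 min at 23° C, with 500 μM IBMX in HEPES-buffered HBSS plus 0.1% BSA, in HEK293 cells expressing full-length hGLP-1R. Levels read by D2-cAMP/antibody immunoassay via standard curve, scaled between low and high controls. EC50 fitted four-parameter over a 10-point curve.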

[6] = Plasma stability of payloads (t½)
human GLP1R [7] = target: T1, human GLP1R; assay: Luciferase reporter assay, HEK293/CRE-Luc/hGLP1R cells (Example 11); format: cell-based; parameters: engineered to express full-length human GLP1R, cynomolgus GLP1R; expressed in transfected cells; host or cells: HEK293/CRE-Luc; conditions: Table 11; Experiment A
Description: as §2, §3
GLP1R agonist linker payloads were conjugated to anti-hGLP1R antibodies via N-terminal heavy or light chain Q tags. Several resulting anti-GLP1R antibody tethered drug conjugates (ATDCs) were tested for activity in the HEK293/CRE-Luc/hGLP1R reporter assay as described above for the free GLP1R payload and linker-payload agonists.

[8] = pH 7.4, tested time A (1 day per footnote)

SMILES | half-life at 2 µM ([1]; pH 7.4, tested time C (3 days)) | S/N (human GLP1R [2]) | pEC50 (human GLP1R [2]) | Relative Potency (% M2361 EC50) (human GLP1R [2]) | Relative Signal:Noise (% M2361) (human GLP1R [2]) | S/N (HEK293/CRE-Luc cells [3]) | pEC50 (HEK293/CRE-Luc cells [3]) | pEC50 (HEK293/CRE-Luc cells [4]) | HEK293/CRE-LUC S/N (HEK293/CRE-Luc cells [4]) | pEC50 (human GLP1R [5]) | Plasma stability t½ [6] | pEC50 (human GLP1R [7]) | HEK293/CRE-LUC/hGLP1R Relative Potency (% P8 EC50) (human GLP1R [7]) | HEK293/CRE-LUC/hGLP1R S/N (human GLP1R [7]) | half-life at 2 µM [1, 8]
CCc1cc(OCCCCN)ccc1-c1ccc(C[C@H](NC(=O)[C@H](CC(=O)O)NC(=O)[C@H](CO)NC(=O)[C@@H](NC(=O)[C@](C)(Cc2ccccc2F)NC(=O)[C@@H](NC(=O)CNC(=O)[C@H](CCC(N)=O)NC(=O)C(C)(C)C(=O)NCCc2cnc[nH]2)[C@@H](C)O)[C@@H](C)O)C(=O)N[C@@H](CCCc2cc(C)cc(C)c2)C(N)=O)cc1 [P21] | > 173 h | 58.8 | 9.13 | 0.7% | 89.5% | 1.3 | < 6.70 | < 6.70 | 1.3 | 9.37 | >57.8 h | 9.13 | 0.7% | 58.8 | –
CCc1cc(OCCCCN)ccc1-c1ccc(C[C@H](NC(=O)[C@H](CC(=O)O)NC(=O)[C@H](CO)NC(=O)[C@@H](NC(=O)[C@](C)(Cc2ccccc2F)NC(=O)[C@@H](NC(=O)CNC(=O)[C@H](Cc2nn[nH]n2)NC(=O)C(C)(C)c2ccn[nH]2)[C@@H](C)O)[C@@H](C)O)C(=O)N[C@@H](CCCc2cc(C)cc(C)c2)C(N)=O)cc1 [P6] (X3-[Ala(1H-tetrazol-5-yl)]GT[αMePhe(2-F)]TSD[Bip(2'-Et,4'-O(CH2)4NH2)][Nva(5-(3,5-Me2Ph))]-NH2) | – | 60.7 | 9.22 | 0.9% | 92.3% | 1.0 | < 6.70 | < 6.70 | 1.0 | 9.07 | >57.8 h | 9.22 | 0.9% | 60.7 | > 57.8 h
CCc1cc(OCCCCN)ccc1-c1ccc(C[C@H](NC(=O)[C@H](CC(=O)O)NC(=O)[C@H](CO)NC(=O)[C@@H](NC(=O)[C@](C)(Cc2ccccc2F)NC(=O)[C@@H](NC(=O)CNC(=O)[C@H](Cc2nn[nH]n2)NC(=O)C(C)(C)C(=O)O)[C@@H](C)O)[C@@H](C)O)C(=O)N[C@@H](CCCc2cc(C)cc(C)c2)C(N)=O)cc1 [P3] (X4-[Ala(1H-tetrazol-5-yl)]GT[αMePhe(2-F)]TSD[Bip(2'-Et,4'-O(CH2)4NH2)][Nva(5-(3,5-Me2Ph))]-NH2) | – | 46.3 | 8.71 | 0.3% | 70.3% | 1.2 | < 6.70 | < 6.70 | 1.2 | 8.84 | >57.8 h | 8.71 | 0.3% | 46.3 | > 57.8 h
CCc1cc(OCCCCN)ccc1-c1ccc(C[C@H](NC(=O)[C@H](CC(=O)O)NC(=O)[C@H](CO)NC(=O)[C@@H](NC(=O)[C@](C)(Cc2ccccc2F)NC(=O)[C@@H](NC(=O)CNC(=O)[C@H](Cc2nn[nH]n2)NC(=O)[C@H](C)NC(=O)[C@H](Cc2c[nH]cn2)NC(=O)[C@@H](N)CCC(N)=O)[C@@H](C)O)[C@@H](C)O)C(=O)N[C@@H](CCCc2cc(C)cc(C)c2)C(N)=O)cc1 [P13] (H-QHA[Ala(1H-tetrazol-5-yl)]GT[αMePhe(2-F)]TSD[Bip(2'-Et,4'-O(CH2)4NH2)][Nva(5-(3,5-Me2Ph))]-NH2) | – | 69.5 | 9.45 | 1.5% | 105.6% | 1.2 | < 6.70 | < 6.70 | 1.2 | 9.04 | 16.9 h | 9.45 | 1.5% | 69.5 | 16.9 h
CCc1cc(OCCCCN)ccc1-c1ccc(C[C@H](NC(=O)[C@H](CC(=O)O)NC(=O)[C@H](CO)NC(=O)[C@@H](NC(=O)[C@](C)(Cc2ccccc2F)NC(=O)[C@@H](NC(=O)CNC(=O)[C@H](Cc2nn[nH]n2)NC(=O)CCCCCc2cnc[nH]2)[C@@H](C)O)[C@@H](C)O)C(=O)N[C@@H](CCCc2cc(C)cc(C)c2)C(N)=O)cc1 [P11] (X1-[Ala(1H-tetrazol-5-yl)]GT[αMePhe(2-F)]TSD[Bip(2'-Et,4'-O(CH2)4NH2)][Nva(5-(3,5-Me2Ph))]-NH2) | – | 54.8 | 9.16 | 0.8% | 83.4% | 1.1 | < 6.70 | < 6.70 | 1.1 | 8.99 | >57.8 h | 9.16 | 0.8% | 54.8 | > 57.8 h
CCc1cc(OCCCCN)ccc1-c1ccc(C[C@H](NC(=O)[C@H](CC(=O)O)NC(=O)[C@H](CO)NC(=O)[C@@H](NC(=O)[C@](C)(Cc2ccccc2F)NC(=O)[C@@H](NC(=O)CNC(=O)[C@H](Cc2nn[nH]n2)NC(=O)CNC(=O)CCc2c[nH]cn2)[C@@H](C)O)[C@@H](C)O)C(=O)N[C@@H](CCCc2cc(C)cc(C)c2)C(N)=O)cc1 [P12] (Desaminohistidyl-G[Ala(1H-tetrazol-5-yl)]GT[αMePhe(2-F)]TSD[Bip(2'-Et,4'-O(CH2)4NH2)][Nva(5-(3,5-Me2Ph))]-NH2) | – | – | 10.94 | – | – | – | – | – | – | 10.41 | >57.8 h | 10.94 | – | – | > 57.8 h
